Test results published in PMC2248166, “Quantitative peptide binding motifs for 19 human and mouse MHC class I molecules derived using positional scanning combinatorial peptide libraries” (Immunome Research, 2008).
Where a SMILES comes first, the peptide text is derived from it.

Each compound was assayed against HLA A*3001 (Homo sapiens, UniProt P04439, D140H/D185E/E176W/F33S/G80R/H175R/K168Q/R138E/R41S) (assay: biochemical).
Assay type: binding

HLA A*3001, sequence (P04439 25-365 limits assumed, stated change not applied): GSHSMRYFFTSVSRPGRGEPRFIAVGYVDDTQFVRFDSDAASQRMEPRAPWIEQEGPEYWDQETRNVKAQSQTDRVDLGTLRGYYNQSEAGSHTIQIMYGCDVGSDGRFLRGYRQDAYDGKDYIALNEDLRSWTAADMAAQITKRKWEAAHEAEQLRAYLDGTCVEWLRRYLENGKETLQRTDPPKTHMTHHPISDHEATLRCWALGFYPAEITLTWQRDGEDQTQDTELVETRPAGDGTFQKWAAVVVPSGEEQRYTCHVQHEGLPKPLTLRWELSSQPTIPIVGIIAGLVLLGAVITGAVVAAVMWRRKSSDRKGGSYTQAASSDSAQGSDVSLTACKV

Going from `CC(C)[C@H](NC(=O)[C@@H](N)CCCNC(=N)N)C(=O)N[C@@H](Cc1c[nH]cn1)C(=O)N[C@@H](CC(=O)O)C(=O)N[C@H](C(=O)N[C@@H](CC(N)=O)C(=O)N[C@@H](C)C(=O)N[C@H](C(=O)N[C@@H](CCCCN)C(=O)O)[C@@H](C)O)[C@@H](C)O` [3102.0197] (H-RVHDTNATK-OH) to `CC[C@H](C)[C@H](NC(=O)[C@H](CCCNC(=N)N)NC(=O)[C@@H](NC(=O)[C@H](CC(=O)O)NC(=O)[C@H](CCCCN)NC(=O)[C@@H](NC(=O)[C@@H](N)CCCNC(=N)N)[C@@H](C)O)[C@@H](C)O)C(=O)N[C@@H](CCCCN)C(=O)N[C@@H](C)C(=O)O` [3102.0205] (H-RTKDTRIKA-OH), the IC50 falls from 7.7 nM to 0.2 nM (38-fold).

First: CC(C)C[C@H](NC(=O)[C@H](Cc1ccccc1)NC(=O)[C@@H](NC(=O)[C@H](Cc1ccc(O)cc1)NC(=O)[C@H](CCCNC(=N)N)NC(=O)[C@@H](NC(=O)[C@@H](N)CC(N)=O)C(C)C)C(C)C)C(=O)N[C@@H](Cc1ccc(O)cc1)C(=O)N[C@@H](CCCCN)C(=O)O [3102.0198] (H-NVRYVFLYK-OH)
Second: CC(C)C[C@H](NC(=O)[C@@H](N)CCCNC(=N)N)C(=O)N[C@@H](CCCCN)C(=O)N[C@@H](CC(=O)O)C(=O)N[C@@H](Cc1ccc(O)cc1)C(=O)N[C@@H](CCC(N)=O)C(=O)N[C@@H](Cc1c[nH]cn1)C(=O)N[C@@H](Cc1ccccc1)C(=O)N[C@H](C(=O)O)C(C)C [3102.0208] (H-RLKDYQHFV-OH)
The IC50 of the first is 25-fold higher: 9.9 nM for the first, 0.39 nM for the second. The second is the more potent here.

First: CC[C@H](C)[C@H](N)C(=O)N[C@@H](CO)C(=O)N[C@@H](CCCNC(=N)N)C(=O)N[C@@H](CC(N)=O)C(=O)N[C@@H](CCCCN)C(=O)N[C@@H](CC(N)=O)C(=O)N[C@H](C(=O)N[C@@H](Cc1ccccc1)C(=O)N[C@H](C(=O)O)C(C)C)[C@@H](C)CC [3102.0199] (H-ISRNKNIFV-OH)
Second: CC[C@H](C)[C@H](NC(=O)[C@@H](N)CO)C(=O)N[C@@H](CCCCN)C(=O)N[C@@H](CCCNC(=N)N)C(=O)N[C@@H](CO)C(=O)N[C@@H](CC(N)=O)C(=O)N[C@H](C(=O)N[C@@H](Cc1ccccc1)C(=O)N[C@@H](C)C(=O)O)C(C)C [3102.0214] (H-SIKRSNVFA-OH)
The IC50 of the first is 2-fold higher: 7.3 nM for the first, 3.6 nM for the second. The second is the more potent here.

Going from `CC[C@H](C)[C@H](NC(=O)[C@H](CCCCN)NC(=O)[C@@H](NC(=O)CN)[C@@H](C)O)C(=O)N[C@@H](C)C(=O)N[C@@H](CC(C)C)C(=O)N[C@@H](CC(C)C)C(=O)N[C@@H](CCC(=O)O)C(=O)N[C@@H](CC(C)C)C(=O)O` [3102.0200] (H-GTKIALLEL-OH) to `CC[C@H](C)[C@H](NC(=O)[C@H](CCCCN)NC(=O)[C@@H](NC(=O)[C@@H](N)CCCNC(=N)N)[C@@H](C)O)C(=O)N[C@H](C(=O)N[C@@H](CO)C(=O)N[C@@H](CC(C)C)C(=O)N1CCC[C@H]1C(=O)N[C@@H](CC(C)C)C(=O)O)[C@@H](C)O` [3102.0201] (H-RTKITSLPL-OH), the IC50 falls from 1.3 nM to 0.087 nM (15-fold). The second is the more potent here.

First: CC[C@H](C)[C@H](NC(=O)[C@H](C)NC(=O)[C@@H](NC(=O)[C@@H](NC(=O)[C@H](C)NC(=O)[C@H](Cc1ccccc1)NC(=O)[C@@H](NC(=O)[C@@H](N)CCCCN)[C@@H](C)O)[C@@H](C)CC)[C@@H](C)CC)C(=O)N[C@H](C(=O)O)C(C)C [3102.0202] (H-KTFAIIAIV-OH)
Second: CC[C@H](C)[C@H](NC(=O)[C@H](Cc1ccc(O)cc1)NC(=O)[C@H](C)NC(=O)[C@H](C)NC(=O)[C@H](Cc1c[nH]cn1)NC(=O)[C@H](CO)NC(=O)[C@H](CCCCN)NC(=O)[C@H](CO)NC(=O)[C@@H](N)CCSC)C(=O)O [3102.0207] (H-MSKSHAAYI-OH)
The IC50 of the first is 100-fold higher: 24 nM for the first, 0.23 nM for the second. The second is the more potent here.

First: CSCC[C@H](N)C(=O)N[C@@H](CO)C(=O)N[C@@H](CCCNC(=N)N)C(=O)N[C@@H](CCCNC(=N)N)C(=O)N[C@@H](Cc1ccc(O)cc1)C(=O)N[C@@H](CO)C(=O)N[C@@H](CCCNC(=N)N)C(=O)N[C@@H](CCC(=O)O)C(=O)N[C@@H](CCCCN)C(=O)O [3102.0203] (H-MSRRYSREK-OH)
Second: CSCC[C@H](NC(=O)[C@@H](N)CCCCN)C(=O)N[C@@H](CCCNC(=N)N)C(=O)N[C@@H](CCCNC(=N)N)C(=O)N[C@@H](CCC(=O)O)C(=O)N[C@@H](CCCNC(=N)N)C(=O)N[C@@H](C)C(=O)N[C@@H](C)C(=O)N[C@@H](Cc1ccc(O)cc1)C(=O)O [3102.0231] (H-KMRRERAAY-OH)
The IC50 of the first is 2.3-fold lower: 1.3 nM for the first, 3 nM for the second.

Going from `CC[C@H](C)[C@H](NC(=O)[C@H](C)NC(=O)[C@@H](N)CCCCN)C(=O)N[C@@H](CO)C(=O)N[C@@H](CC(N)=O)C(=O)N[C@@H](C)C(=O)N[C@@H](CCCNC(=N)N)C(=O)N[C@@H](CC(C)C)C(=O)N[C@@H](CCCCN)C(=O)O` [3102.0204] (H-KAISNARLK-OH) to `CC(C)C[C@H](NC(=O)[C@@H](N)CCCNC(=N)N)C(=O)N[C@@H](CCCCN)C(=O)N[C@@H](CO)C(=O)N[C@@H](C)C(=O)N[C@H](C(=O)N[C@@H](CS)C(=O)N[C@@H](Cc1ccc(O)cc1)C(=O)N[C@@H](CCCCN)C(=O)O)C(C)C` [3102.0220] (H-RLKSAVCYK-OH), the IC50 falls from 26 nM to 0.18 nM (140-fold). The second is the more potent here.

Compared with `CC[C@H](C)[C@H](NC(=O)[C@@H](N)CCCCN)C(=O)N[C@@H](CCCNC(=N)N)C(=O)N1CCC[C@H]1C(=O)N[C@H](C(=O)N[C@@H](CCCNC(=N)N)C(=O)N[C@@H](CO)C(=O)N[C@H](C(=O)N[C@@H](Cc1ccc(O)cc1)C(=O)O)C(C)C)[C@@H](C)O` [3102.0206] (H-KIRPTRSVY-OH), `CC[C@H](C)[C@H](NC(=O)[C@@H](NC(=O)[C@@H](N)CCSC)[C@@H](C)O)C(=O)N[C@@H](CCCNC(=N)N)C(=O)N[C@@H](CCC(=O)O)C(=O)N[C@@H](Cc1ccccc1)C(=O)N1CCC[C@H]1C(=O)N[C@@H](CCCNC(=N)N)C(=O)N[C@@H](CCCCN)C(=O)O` [3102.0225] (H-MTIREFPRK-OH) is 4.5-fold lower in IC50: 7.2 nM for the first, 1.6 nM for the second. The second is the more potent here.

First: CSCC[C@H](N)C(=O)NCC(=O)N[C@@H](CCCNC(=N)N)C(=O)N[C@@H](Cc1ccccc1)C(=O)NCC(=O)N[C@@H](Cc1ccc(O)cc1)C(=O)N[C@H](C(=O)N1CCC[C@H]1C(=O)N[C@@H](Cc1ccc(O)cc1)C(=O)O)C(C)C [3102.0212] (H-MGRFGYVPY-OH)
Second: CC[C@H](C)[C@H](NC(=O)[C@H](CC(C)C)NC(=O)[C@H](CO)NC(=O)CNC(=O)[C@@H]1CCCN1C(=O)[C@H](CCCNC(=N)N)NC(=O)[C@H](Cc1ccccc1)NC(=O)[C@@H](N)CCCCN)C(=O)N[C@@H](Cc1ccc(O)cc1)C(=O)O [3102.0230] (H-KFRPGSLIY-OH)
The IC50 of the first is 50-fold higher: 15 nM for the first, 0.3 nM for the second.

`CC(C)C[C@H](NC(=O)[C@@H]1CCCN1C(=O)[C@H](Cc1c[nH]cn1)NC(=O)[C@@H](NC(=O)[C@H](CS)NC(=O)[C@H](CCCCN)NC(=O)[C@@H](NC(=O)[C@@H](N)CO)C(C)C)[C@@H](C)O)C(=O)N[C@H](C(=O)O)C(C)C` [3102.0215] (H-SVKCTHPLV-OH) and `CC[C@H](C)[C@H](NC(=O)[C@H](CC(N)=O)NC(=O)[C@@H]1CCCN1C(=O)[C@@H](NC(=O)[C@H](Cc1c[nH]cn1)NC(=O)[C@H](CC(N)=O)NC(=O)[C@H](CCCCN)NC(=O)[C@@H](NC(=O)[C@@H](N)CCCCN)C(C)C)[C@@H](C)CC)C(=O)O` [3102.0222] (H-KVKNHIPNI-OH) are within 1.5-fold of each other in IC50: 0.97 nM for the first, 0.68 nM for the second.

`CC[C@H](C)[C@H](NC(=O)[C@H](CCCNC(=N)N)NC(=O)[C@@H]1CCCN1C(=O)[C@H](CO)NC(=O)[C@H](C)NC(=O)[C@H](CCCNC(=N)N)NC(=O)[C@H](CO)NC(=O)[C@@H](N)Cc1c[nH]cn1)C(=O)NCC(=O)O` [3102.0216] (H-HSRASPRIG-OH) and `C[C@H](NC(=O)[C@H](C)NC(=O)[C@H](CC(N)=O)NC(=O)[C@H](CCC(N)=O)NC(=O)[C@@H]1CCCN1C(=O)[C@H](CC(=O)O)NC(=O)[C@H](CCCNC(=N)N)NC(=O)[C@@H](NC(=O)[C@@H](N)Cc1c[nH]cn1)[C@@H](C)O)C(=O)O` [3102.0224] (H-HTRDPQNAA-OH) are within 1.5-fold of each other in IC50: 0.93 nM for the first, 0.91 nM for the second.

First: CSCC[C@H](NC(=O)[C@H](CC(C)C)NC(=O)[C@H](CCCNC(=N)N)NC(=O)[C@H](C)NC(=O)[C@@H](N)CC(N)=O)C(=O)N[C@@H](CCCNC(=N)N)C(=O)N[C@@H](C)C(=O)N[C@@H](CC(C)C)C(=O)N[C@@H](CCCCN)C(=O)O [3102.0218] (H-NARLMRALK-OH)
Second: CSCC[C@H](N)C(=O)N[C@@H](CCCNC(=N)N)C(=O)N[C@@H](CCCNC(=N)N)C(=O)N[C@@H](CCC(=O)O)C(=O)N[C@@H](CCCNC(=N)N)C(=O)N[C@@H](C)C(=O)N[C@@H](C)C(=O)N[C@@H](Cc1ccc(O)cc1)C(=O)N[C@H](C(=O)O)C(C)C [3102.0232] (H-MRRERAAYV-OH)
The IC50 of the first is 10-fold lower: 2.2 nM for the first, 22 nM for the second. The first is the more potent here.

First: CSCC[C@H](NC(=O)[C@H](Cc1ccc(O)cc1)NC(=O)[C@H](CC(N)=O)NC(=O)[C@H](Cc1ccc(O)cc1)NC(=O)[C@H](CO)NC(=O)[C@H](CCCCN)NC(=O)[C@@H](NC(=O)[C@@H](N)CCCCN)C(C)C)C(=O)N[C@@H](CC(C)C)C(=O)O [3102.0219] (H-KVKSYNYML-OH)
Second: CC(C)C[C@H](NC(=O)[C@H](CCC(=O)O)NC(=O)[C@H](CCCNC(=N)N)NC(=O)[C@H](CCCCN)NC(=O)[C@H](Cc1ccc(O)cc1)NC(=O)[C@H](Cc1ccccc1)NC(=O)[C@H](CCCCN)NC(=O)[C@@H](NC(=O)[C@@H](N)CCCCN)C(C)C)C(=O)O [3102.0235] (H-KVKFYKREL-OH)
The IC50 of the first is 230-fold lower: 0.18 nM for the first, 42 nM for the second.

Going from `C[C@@H](O)[C@H](N)C(=O)N[C@@H](Cc1ccccc1)C(=O)N[C@@H](CCCNC(=N)N)C(=O)N[C@@H](CCC(=O)O)C(=O)N[C@@H](CCCNC(=N)N)C(=O)N[C@@H](Cc1ccc(O)cc1)C(=O)N[C@@H](CO)C(=O)N[C@@H](Cc1ccc(O)cc1)C(=O)N[C@@H](CCCCN)C(=O)O` [3102.0221] (H-TFRERYSYK-OH) to `CC[C@H](C)[C@H](NC(=O)[C@H](Cc1ccc(O)cc1)NC(=O)CNC(=O)CNC(=O)[C@@H](NC(=O)[C@H](Cc1ccccc1)NC(=O)[C@H](CCCNC(=N)N)NC(=O)[C@H](C)NC(=O)[C@@H](N)CCCNC(=N)N)[C@@H](C)CC)C(=O)O` [3102.0226] (H-RARFIGGYI-OH), the IC50 falls from 0.89 nM to 0.26 nM (3.4-fold).

`CC(C)C[C@H](NC(=O)[C@H](CCC(N)=O)NC(=O)CNC(=O)[C@H](CC(=O)O)NC(=O)[C@H](CCCNC(=N)N)NC(=O)[C@@H](NC(=O)[C@@H](N)[C@@H](C)O)C(C)C)C(=O)N[C@@H](CCC(=O)O)C(=O)N[C@H](C(=O)O)C(C)C` [3102.0228] (H-TVRDGQLEV-OH) was tested, and the IC50 was 13 nM.
